Key:
ALDH1A2 = target: T1, ALDH1A2 (Homo sapiens, UniProt O94788); test: ALDH1A2 activity assay, propionaldehyde/NAD+; type: biochemical; conditions: up to 250 μM
T1 sequence (O94788 1-518): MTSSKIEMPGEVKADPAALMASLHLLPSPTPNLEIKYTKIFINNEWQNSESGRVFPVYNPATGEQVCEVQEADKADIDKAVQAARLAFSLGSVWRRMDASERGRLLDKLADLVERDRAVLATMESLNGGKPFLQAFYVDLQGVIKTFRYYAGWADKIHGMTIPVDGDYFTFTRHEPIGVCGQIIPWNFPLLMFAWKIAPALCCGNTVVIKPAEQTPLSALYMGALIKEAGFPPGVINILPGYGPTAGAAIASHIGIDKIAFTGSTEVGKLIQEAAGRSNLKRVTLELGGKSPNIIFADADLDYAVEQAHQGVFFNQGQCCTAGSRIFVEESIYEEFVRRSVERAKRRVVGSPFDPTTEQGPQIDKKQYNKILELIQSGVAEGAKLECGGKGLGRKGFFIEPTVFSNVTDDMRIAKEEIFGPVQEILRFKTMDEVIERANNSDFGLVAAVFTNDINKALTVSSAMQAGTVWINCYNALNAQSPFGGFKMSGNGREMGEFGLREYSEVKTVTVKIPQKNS

ALDH3A1 [1] = target: T2, ALDH3A1 (Homo sapiens, UniProt P30838); test: Steady-state kinetics, mode of inhibition of ALDH3A1; type: biochemical
T2 sequence (P30838 1-453): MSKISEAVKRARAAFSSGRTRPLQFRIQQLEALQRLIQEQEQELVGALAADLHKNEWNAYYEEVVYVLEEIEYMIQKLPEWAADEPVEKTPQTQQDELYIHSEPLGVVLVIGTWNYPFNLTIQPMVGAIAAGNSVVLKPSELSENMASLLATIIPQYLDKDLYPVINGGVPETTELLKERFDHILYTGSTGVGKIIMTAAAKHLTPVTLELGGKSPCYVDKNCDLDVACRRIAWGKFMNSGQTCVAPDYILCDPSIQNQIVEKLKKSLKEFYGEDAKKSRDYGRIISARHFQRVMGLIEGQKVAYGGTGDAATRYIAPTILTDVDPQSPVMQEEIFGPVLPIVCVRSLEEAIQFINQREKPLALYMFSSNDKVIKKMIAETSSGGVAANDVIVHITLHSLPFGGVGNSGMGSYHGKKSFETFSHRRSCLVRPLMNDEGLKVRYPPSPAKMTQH

CCD-13Lu cells = test: Colorimetric MTT assay for mafosfamide sensitivity, CCD-13Lu; conditions: 19 hours, Figure 4C
ALDH1A3 = target: T3, ALDH1A3 (Homo sapiens, UniProt P47895); test: ALDH1A3 activity assay, propionaldehyde/NAD+; type: biochemical; conditions: up to 250 μM
T3 sequence (P47895 1-512): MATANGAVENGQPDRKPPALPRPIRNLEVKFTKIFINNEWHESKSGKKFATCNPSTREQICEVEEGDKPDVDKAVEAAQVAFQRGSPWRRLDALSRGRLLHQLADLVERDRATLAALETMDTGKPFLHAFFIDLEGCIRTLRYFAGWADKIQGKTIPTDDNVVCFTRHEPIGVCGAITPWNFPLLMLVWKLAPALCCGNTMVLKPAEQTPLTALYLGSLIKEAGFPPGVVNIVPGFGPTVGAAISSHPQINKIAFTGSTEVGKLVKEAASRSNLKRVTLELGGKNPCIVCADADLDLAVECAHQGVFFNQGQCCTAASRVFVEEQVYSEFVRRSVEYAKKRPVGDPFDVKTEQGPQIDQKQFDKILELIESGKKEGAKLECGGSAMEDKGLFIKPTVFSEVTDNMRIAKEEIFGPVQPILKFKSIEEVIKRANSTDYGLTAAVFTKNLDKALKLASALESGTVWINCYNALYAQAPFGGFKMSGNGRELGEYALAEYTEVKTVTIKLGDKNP

A549 cells = conditions: 50 μM inhibitor alone, 19 hours, MTT, Figure 4A grey bars
[2] = target: T4, ALDH3A1 activity in SF767 cell lysates (Homo sapiens, UniProt P30838); test: Cell lysate ALDH3A1 activity in presence and absence of CB29, SF767; type: biochemical; conditions: 50 μM CB29, […] NADP+, 1 mM benzaldehyde
T4 sequence (P30838 1-453): T2 sequence (P30838 1-453)

ALDH1B1 = target: T5, ALDH1B1 (Homo sapiens, UniProt P30837); test: ALDH1B1 activity assay, propionaldehyde/NAD+; type: biochemical; conditions: up to 250 μM
T5 sequence (P30837 18-517): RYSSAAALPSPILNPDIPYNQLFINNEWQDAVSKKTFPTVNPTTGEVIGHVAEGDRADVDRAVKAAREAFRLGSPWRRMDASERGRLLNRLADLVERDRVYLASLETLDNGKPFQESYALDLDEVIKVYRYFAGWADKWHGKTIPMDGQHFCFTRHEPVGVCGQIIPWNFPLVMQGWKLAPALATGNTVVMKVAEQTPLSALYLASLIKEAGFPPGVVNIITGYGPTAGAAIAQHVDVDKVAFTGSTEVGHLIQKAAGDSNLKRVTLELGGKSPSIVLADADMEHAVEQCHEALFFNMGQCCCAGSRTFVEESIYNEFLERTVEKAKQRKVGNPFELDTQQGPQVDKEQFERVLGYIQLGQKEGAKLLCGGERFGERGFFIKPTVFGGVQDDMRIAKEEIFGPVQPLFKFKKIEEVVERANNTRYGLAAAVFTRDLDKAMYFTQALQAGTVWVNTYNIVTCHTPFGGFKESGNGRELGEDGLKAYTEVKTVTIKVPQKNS

[3] = target: T6, ALDH3A1 activity in A549 cell lysates (Homo sapiens, UniProt P30838); test: Cell lysate ALDH3A1 activity in presence and absence of CB29, A549; type: biochemical; conditions: 50 μM CB29, […] NADP+, 1 mM benzaldehyde
T6 sequence (P30838 1-453): T2 sequence (P30838 1-453)

ALDH2 = target: T7, ALDH2 (Homo sapiens, UniProt P05091); test: ALDH2 inhibition, propionaldehyde as substrate; type: biochemical; conditions: up to 250 μM
T7 sequence (P05091 18-517): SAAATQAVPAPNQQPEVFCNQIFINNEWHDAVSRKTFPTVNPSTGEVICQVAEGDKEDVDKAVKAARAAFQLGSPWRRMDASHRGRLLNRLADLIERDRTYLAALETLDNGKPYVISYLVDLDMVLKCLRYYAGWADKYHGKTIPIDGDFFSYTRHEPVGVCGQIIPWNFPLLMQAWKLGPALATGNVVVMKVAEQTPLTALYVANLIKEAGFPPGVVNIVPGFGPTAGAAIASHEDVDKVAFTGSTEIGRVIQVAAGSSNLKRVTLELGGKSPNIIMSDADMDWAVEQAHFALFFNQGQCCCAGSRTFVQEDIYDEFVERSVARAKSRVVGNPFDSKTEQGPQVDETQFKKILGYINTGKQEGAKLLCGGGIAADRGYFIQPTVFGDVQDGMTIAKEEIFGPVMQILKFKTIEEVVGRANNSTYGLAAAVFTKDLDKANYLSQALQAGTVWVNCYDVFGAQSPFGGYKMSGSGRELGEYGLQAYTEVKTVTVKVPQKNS

[4] = Formation of homogeneous solution; type: physicochemical; conditions: in the presence of […] DMSO
ALDH1A1 = target: T8, ALDH1A1 (Homo sapiens, UniProt P00352); test: ALDH1A1 inhibition, propionaldehyde as substrate; type: biochemical; conditions: up to 250 μM
T8 sequence (P00352 1-501): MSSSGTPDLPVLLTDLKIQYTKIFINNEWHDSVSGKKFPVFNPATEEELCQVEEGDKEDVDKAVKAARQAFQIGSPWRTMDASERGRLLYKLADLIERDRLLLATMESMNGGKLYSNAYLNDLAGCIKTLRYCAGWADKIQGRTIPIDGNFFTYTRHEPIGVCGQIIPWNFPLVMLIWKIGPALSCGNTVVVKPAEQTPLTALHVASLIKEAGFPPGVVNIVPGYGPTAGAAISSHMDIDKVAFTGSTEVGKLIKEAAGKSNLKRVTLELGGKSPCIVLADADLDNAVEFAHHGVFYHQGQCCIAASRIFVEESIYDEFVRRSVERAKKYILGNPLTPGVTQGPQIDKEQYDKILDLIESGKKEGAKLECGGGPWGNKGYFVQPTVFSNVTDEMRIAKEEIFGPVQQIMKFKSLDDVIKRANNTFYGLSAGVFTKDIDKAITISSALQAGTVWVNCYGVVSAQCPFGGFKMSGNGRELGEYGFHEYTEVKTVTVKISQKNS

ALDH3A1 [5] = target: T2, ALDH3A1; test: Recombinant ALDH3A1 activity in presence and absence of CB29; type: biochemical; conditions: 50 μM CB29, […] NADP+, 1 mM benzaldehyde

CC(=O)Nc1ccc(Nc2ccc(S(C)(=O)=O)cc2[N+](=O)[O-])cc1 [CB29, N-[4-{(4-(methylsulfonyl)-2-nitrophenyl)-4-amino}-phenyl]-acetamide]
inhibition toward ALDH1A2 (ALDH1A2): < 5%
Ki (ALDH3A1 [1]; competitive versus varied benzaldehyde, fixed NADP+ […], 10 nM ALDH3A1): 4 µM
mode of inhibition (ALDH3A1 [1]; with respect to benzaldehyde): competitive
enhancement of mafosfamide sensitivity, CCD-13Lu (in words) (CCD-13Lu cells; 50 μM inhibitor + 40 μM mafosfamide): did not show mafosfamide chemosensitivity
cytotoxicity / proliferation with inhibitor alone, CCD-13Lu (in words) (CCD-13Lu cells; 50 μM inhibitor): unaffected
inhibition toward ALDH1A3 (ALDH1A3): < 5%
increase in mafosfamide chemosensitivity, SF767 (SF767 cells; 50 μM inhibitor + […] mafosfamide, 19 hours, MTT, p<0.005): ~2 fold
effect on cell proliferation as single agent, SF767 (in words) (SF767 cells; 50 μM inhibitor alone, 19 hours, MTT, Figure 4B grey bars): little effect
decrease of ED50 value of mafosfamide in the presence of inhibitor, SF767 (SF767 cells; inhibitor 50 μM, Figure 5B): 1.6 fold
ED50 of mafosfamide in the presence of inhibitor, SF767 (SF767 cells; inhibitor 50 μM, mafosfamide 0-250 μM, MTT, Figure 5B): 92 ± 4 µM
effect on cell proliferation as single agent, A549 (in words) (A549 cells): little effect
decrease of ALDH3A1 activity in SF767 cell lysate [2]: > 90%
inhibition toward ALDH1B1 (ALDH1B1): < 5%
decrease of ALDH3A1 activity in A549 cell lysate [3]: > 95%
inhibition toward ALDH2 (ALDH2): < 5%
homogeneous solution formed [4]: ≥ 100 µM
inhibition toward ALDH1A1 (ALDH1A1): < 5%
decrease of activity of recombinant ALDH3A1 (ALDH3A1 [5]): ~ 97%

— PMC4043872 (Chembiochem : a European journal of chemical biology, 2014)
